# Earlier results as cited in paper PMC12671102 (Drug Design, Development and Therapy, 2025).
# Legend:
# [1] = moderate fat meal
# subjects [2] = conditions: Phase II study
# subjects [3] = test system: subjects
smiles,measurement,setting,value
CC(C)(Sc1ccncc1-c1ccc(C#N)c2ccccc12)C(=O)O [verinurad],effect of food on absorption,[1],delayed absorption
same,nephrolithiasis,subjects [2],no nephrolithiasis
same,subjects with increases in serum creatinine,subjects [2],17.1%
O=C(c1cc(Br)c(O)c(Br)c1)N1CCOc2ccncc21 [URC102],subjects with TEAEs,subjects [3],41%
